Key:
[1] = tested on: rabbit serum obtained by immunizing a rabbit with the SARS-CoV strain Frankfurt 1; format: binding; design: Binding of a rabbit serum to linear peptides / Binding of a rabbit serum to looped peptides / Rabbit serum linear peptides / Rabbit serum looped peptides / Binding of a rabbit serum to linear peptides of protein N of SARS-CoV Urbani (Rabbit serum linear peptides) / Binding of a rabbit serum to looped/cyclic peptides of protein N of SARS-CoV Urbani (Rabbit serum looped peptides): unit not given here
[2] = tested on: control sera (pooled serum of ten healthy LUMC hospital workers; commercial negative donor pooled serum from the Dutch bloodbank); format: binding, human; design: Binding of Control serum LUMC to linear peptides / Binding of Control serum Blood-bank to linear peptides / Binding of Control serum LUMC to looped peptides / Binding of Control Serum Blood-Bank to Looped peptides / Binding of Control serum LUMC to linear peptides of the protein M of SARS-CoV Urbani / Binding of Control serum Blood-bank to linear peptides of the protein M of SARS-CoV Urbani / Binding of Control serum LUMC to looped peptides of the protein M of SARS-CoV Urbani / Binding of Control Serum Blood-Bank to Looped peptides of the protein M of SARS-CoV Urbani: unit not given here
[3] = tested on: antibodies in sera from SARS patients (sera 1a, 1b, 2, 6, 37, 62, London, SARS-yellow, SARS-green); format: binding, human; design: Binding of serum 6 to linear peptides of protein X1 of SARS-CoV Urbani / Binding of serum 37 to linear peptides of protein X1 of SARS-CoV Urbani / Binding of serum 6 to looped/cyclic peptide (PEPSCAN-ELISA) / Binding of serum 37 to looped/cyclic peptide (PEPSCAN-ELISA) / Binding of serum 37 to looped/cyclic peptides of protein X1 of SARS-CoV Urbani / Binding of serum 6 to linear peptides of protein X2 / Binding of serum 37 to linear peptides of protein X2 / Binding of serum 37 to looped/cyclic peptides of protein X2 of SARS-CoV Urbani / Binding of serum 6 to linear peptides of protein M of SARS-CoV Urbani / Binding of serum 37 to linear peptides of protein M of SARS-CoV Urbani / Binding of serum 6 to looped/cyclic peptides of protein M of SARS-CoV Urbani / Binding of serum 37 to looped/cyclic peptides of protein M of SARS-CoV Urbani / Binding of serum 6 to linear peptides of protein X3 of SARS-CoV Urbani / Binding of serum 37 to linear peptides of protein X3 of SARS-CoV Urbani / Binding of serum 37 to looped/cyclic peptides of protein X3 of SARS-CoV Urbani / Binding of serum 6 to linear peptides of protein X4 of SARS-CoV Urbani / Binding of serum 37 to linear peptides of protein X4 of SARS-CoV Urbani / Binding of serum 37 to looped/cyclic peptides of protein X4 of SARS-CoV Urbani / Binding of serum 6 to linear peptides of protein X5 of SARS-CoV Urbani / Binding of serum 37 to linear peptides of protein X5 of SARS-CoV Urbani / Binding of serum 37 to looped/cyclic peptides of protein X5 of SARS-CoV Urbani / Binding of serum 6 to linear peptides of protein N of SARS-CoV Urbani / Binding of serum 37 to linear peptides of protein N of SARS-CoV Urbani / Binding of serum 6 to linear peptide (PEPSCAN-ELISA) / Binding of serum 1a to looped/cyclic peptides of protein N of SARS-CoV Urbani / Binding of serum 1b to looped/cyclic peptides of protein N of SARS-CoV Urbani / Binding of serum 2 to looped/cyclic peptides of protein N of SARS-CoV Urbani / Binding of serum 6 to looped/cyclic peptides of protein N of SARS-CoV Urbani / Binding of serum 37 to looped/cyclic peptides of protein N of SARS-CoV Urbani / Binding of serum 62 to looped/cyclic peptides of protein N of SARS-CoV Urbani / Binding of serum London to looped/cyclic peptides of protein N of SARS-CoV Urbani / Binding of serum SARS-green to looped/cyclic peptides of protein N of SARS-CoV Urbani: unit not given here

FTSCELYHYQECVRG
Rabbit serum linear peptides [1]: 0.4 | Rabbit serum looped peptides [1]: 0.3 | Binding of Control Serum Blood-Bank to Looped peptides [2]: 0.8 | Binding of Control serum Blood-bank to linear peptides [2]: 0.7 | Binding of Control serum LUMC to linear peptides [2]: 0.7 | Binding of Control serum LUMC to looped peptides [2]: 0.8 | Binding of serum 1a to linear peptides of protein X4 of SARS-CoV Urbani [3]: 0.8 | Binding of serum 1a to looped/cyclic peptides of protein X4 of SARS-CoV Urbani [3]: 0.8 | Binding of serum 1b to linear peptides of protein X4 of SARS-CoV Urbani [3]: 0.7 | Binding of serum 1b to looped/cyclic peptides of protein X4 of SARS-CoV Urbani [3]: 0.7 | Binding of serum 2 to linear peptides of protein X4 of SARS-CoV Urbani [3]: 0.5 | Binding of serum 2 to looped/cyclic peptides of protein X4 of SARS-CoV Urbani [3]: 0.6 | Binding of serum 6 to linear peptides of protein X4 of SARS-CoV Urbani [3]: 0.9 | Binding of serum 6 to looped/cyclic peptides of protein X4 of SARS-CoV Urbani [3]: 0.6 | Binding of serum 37 to linear peptides of protein X4 of SARS-CoV Urbani [3]: 0.8 | Binding of serum 37 to looped/cyclic peptides of protein X4 of SARS-CoV Urbani [3]: 0.8 | Binding of serum 62 to linear peptides of protein X4 of SARS-CoV Urbani [3]: 0.8 | Binding of serum 62 to looped/cyclic peptides of protein X4 of SARS-CoV Urbani [3]: 0.7 | Binding of serum London to linear peptides of protein X4 of SARS-CoV Urbani [3]: 0.9 | Binding of serum London to looped/cyclic peptides of protein X4 of SARS-CoV Urbani [3]: 0.3 | Binding of serum SARS-green to linear peptides of protein X4 of SARS-CoV Urbani [3]: 0.5 | Binding of serum SARS-green to looped/cyclic peptides of protein X4 of SARS-CoV Urbani [3]: 0.6 | Binding of serum SARS-yellow to linear peptides of protein X4 of SARS-CoV Urbani [3]: 0.3 | Binding of serum SARS-yellow to looped/cyclic peptides of protein X4 of SARS-CoV Urbani [3]: 0.5

FTTSLSLHKLLQTLV
Binding of a rabbit serum to linear peptides [1]: 0.1 | Binding of a rabbit serum to looped peptides [1]: 0.9 | Binding of Control Serum Blood-Bank to Looped peptides [2]: 2.0 | Binding of Control serum Blood-bank to linear peptides [2]: 0.6 | Binding of Control serum LUMC to linear peptides [2]: 0.5 | Binding of Control serum LUMC to looped peptides [2]: 1.6 | Binding of serum 1a to linear peptides of protein X2 [3]: 0.5 | Binding of serum 1a to looped/cyclic peptides of protein X2 of SARS-CoV Urbani [3]: 2.1 | Binding of serum 1b to linear peptides of protein X2 [3]: 0.5 | Binding of serum 1b to looped/cyclic peptides of protein X2 of SARS-CoV Urbani [3]: 2.5 | Binding of serum 2 to linear peptides of protein X2 [3]: 0.4 | Binding of serum 2 to looped/cyclic peptides of protein X2 of SARS-CoV Urbani [3]: 1.2 | Binding of serum 6 to linear peptides of protein X2 [3]: 0.6 | Binding of serum 6 to looped/cyclic peptides of protein X2 of SARS-CoV Urbani [3]: 0.8 | Binding of serum 37 to linear peptides of protein X2 [3]: 0.5 | Binding of serum 37 to looped/cyclic peptides of protein X2 of SARS-CoV Urbani [3]: 1.3 | Binding of serum 62 to linear peptides of protein X2 [3]: 0.5 | Binding of serum 62 to looped/cyclic peptides of protein X2 of SARS-CoV Urbani [3]: 1.7 | Binding of serum London to linear peptides of protein X2 [3]: 0.4 | Binding of serum London to looped/cyclic peptides of protein X2 of SARS-CoV Urbani [3]: 1.0 | Binding of serum SARS-green to linear peptides of protein X2 [3]: 0.5 | Binding of serum SARS-green to looped/cyclic peptides of protein X2 of SARS-CoV Urbani [3]: 1.7 | Binding of serum SARS-yellow to linear peptides of protein X2 [3]: 0.4 | Binding of serum SARS-yellow to looped/cyclic peptides of protein X2 of SARS-CoV Urbani [3]: 1.3

FVASFRLFARTRSMW
Rabbit serum linear peptides [1]: 0.2 | Rabbit serum looped peptides [1]: 0.3 | Binding of Control Serum Blood-Bank to Looped peptides of the protein M of SARS-CoV Urbani [2]: 0.6 | Binding of Control serum Blood-bank to linear peptides of the protein M of SARS-CoV Urbani [2]: 0.9 | Binding of Control serum LUMC to linear peptides of the protein M of SARS-CoV Urbani [2]: 1.0 | Binding of Control serum LUMC to looped peptides of the protein M of SARS-CoV Urbani [2]: 0.7 | Binding of serum 1a to linear peptides of protein M of SARS-CoV Urbani [3]: 0.9 | Binding of serum 1b to linear peptides of protein M of SARS-CoV Urbani [3]: 1.1 | Binding of serum 2 to linear peptides of protein M of SARS-CoV Urbani [3]: 0.7 | Binding of serum 6 to linear peptides of protein M of SARS-CoV Urbani [3]: 1.3 | Binding of serum 37 to linear peptides of protein M of SARS-CoV Urbani [3]: 0.6 | Binding of serum 62 to linear peptides of protein M of SARS-CoV Urbani [3]: 0.6 | Binding of serum London to linear peptides of protein M of SARS-CoV Urbani [3]: 0.9 | Binding of serum SARS-green to linear peptides of protein M of SARS-CoV Urbani [3]: 0.7 | Binding of serum SARS-yellow to linear peptides of protein M of SARS-CoV Urbani [3]: 0.3 | Recognition of the peptide by sera of SARS-CoV infected individuals, and form (linear, looped/cyclic) in which it is recognized [3]: recognized in looped/cyclic form

FVTIYSHLLLVAAGM
Binding of a rabbit serum to linear peptides [1]: 0.1 | Binding of a rabbit serum to looped peptides [1]: 0.5 | Binding of Control Serum Blood-Bank to Looped peptides [2]: 0.6 | Binding of Control serum Blood-bank to linear peptides [2]: 0.6 | Binding of Control serum LUMC to linear peptides [2]: 0.5 | Binding of Control serum LUMC to looped peptides [2]: 0.5 | Binding of serum 1a to linear peptides of protein X1 of SARS-CoV Urbani [3]: 0.7 | Binding of serum 1a to looped/cyclic peptide (PEPSCAN-ELISA) [3]: 0.5 | Binding of serum 1b to linear peptides of protein X1 of SARS-CoV Urbani [3]: 0.5 | Binding of serum 1b to looped/cyclic peptide (PEPSCAN-ELISA) [3]: 0.3 | Binding of serum 2 to linear peptides of protein X1 of SARS-CoV Urbani [3]: 0.6 | Binding of serum 2 to looped/cyclic peptide (PEPSCAN-ELISA) [3]: 0.3 | Binding of serum 6 to linear peptides of protein X1 of SARS-CoV Urbani [3]: 0.4 | Binding of serum 6 to looped/cyclic peptide (PEPSCAN-ELISA) [3]: 0.3 | Binding of serum 37 to linear peptides of protein X1 of SARS-CoV Urbani [3]: 0.5 | Binding of serum 37 to looped/cyclic peptide (PEPSCAN-ELISA) [3]: 0.5 | Binding of serum 62 to linear peptides of protein X1 of SARS-CoV Urbani [3]: 0.5 | Binding of serum 62 to looped/cyclic peptide (PEPSCAN-ELISA) [3]: 0.5 | Binding of serum London to linear peptides of protein X1 of SARS-CoV Urbani [3]: 0.2 | Binding of serum London to looped/cyclic peptide (PEPSCAN-ELISA) [3]: 0.2 | Binding of serum SARS-green to linear peptides of protein X1 of SARS-CoV Urbani [3]: 0.3 | Binding of serum SARS-green to looped/cyclic peptide (PEPSCAN-ELISA) [3]: 0.2 | Binding of serum SARS-yellow to linear peptides of protein X1 of SARS-CoV Urbani [3]: 0.5 | Binding of serum SARS-yellow to looped/cyclic peptide (PEPSCAN-ELISA) [3]: 0.3
